Data set [1] deals with CYP1A, CYP2A, CYP2C, CYP2B, CYP2E and CYP3A in porcine liver microsomes. The note with it: concentration of 3 μM; cited from earlier work.
The test system of data set [2] is CYP2C8. The note with it: cited from earlier work.
The subject of the next data set is CYP3A. The note with it: chickens; doses of 25 and 125 mg/kg body weight; cited from earlier work.
The conditions of data set [3]: chickens exposed to AFB1 (750 µg/kg); nonsignificant; cited from earlier work.
In data set [4] the test system is CYP1A2, CYP2B6, CYP2E1, CYP2C9, CYP2A6, CYP3A4 (summary bound over all). Put plainly: in vitro. The note with it: chicken, microsomes, pH 7.4. As for the experimental part:
(§1) A cocktail-approach for elucidating the metabolites profiling and CYP450 inhibition was conducted as in Lin et al. with minor changes. The incubation mixture contained 50 μL of 0.2 mg/mL of CLM, 10 μL of 0.1 M phosphate buffer (pH 7.4), 40 μL of 1 mM NADPH and six probe substrates with a total volume of 200 μL. The specific probe substrates used for each CYP450 isoenzyme in the incubation mixture were as follows: PH (CYP1A2), BP (CYP2B6), CLN (CYP2E1), TBD (CYP2C9), CAN (CYP2A6), and MDZ (CYP3A4). Probes substrates were dissolved in methanol as stock solution (1 mg/mL). All of them were diluted to the final concentrations (see Supplemental Materials) with incubation buffer and the percentage of organic solvent in the final incubation volume was below 1% (v/v). Briefly, the mixture was preincubated in a thermoshaker (Biosan, Geraardsbergen, Belgium) for 5 min at 37 °C prior to the initiation of the reaction with NADPH.4Na. After incubation, the mixture was terminated by 400 μL ice-cold acetonitrile. […] A volume of 5 µL of supernatant was analysed using UHPLC-MS/MS.

In the next data set the test system is CYP1A2. Put plainly: in vitro. The note with it: chicken, microsomes, pH 7.4. As for the experimental part:
as §1

The subject of another data set is CYP2A6. Put plainly: in vitro. The note with it: chicken, microsomes, pH 7.4. As for the experimental part:
as §1

For the next data set, the system named is CYP2B6. Briefly: in vitro. The note with it: chicken, microsomes, pH 7.4. As for the experimental part: as §1
A further data set deals with CYP2C9. Briefly: in vitro. The note with it: chicken, microsomes, pH 7.4. As to the method:
as §1

The next data set deals with CYP2E1. Briefly: in vitro. The note with it: chicken, pH 7.4. As to the method: as §1
Data set [5] concerns CYP3A4. Put plainly: in vitro. The note with it: chicken, pH 7.4. As to the method: as §1
Another data set in a line: in vivo. The format is in vivo, broiler chickens (Ross 308). The note with it: for TIA concentration in chicken plasma, Treatment group: AFB1 diet 20 µg/kg feed for 2 weeks.
Another data set relates to broilers. The note with it: AFB1 and TIA co-administrated.
The subject of data set [6] is CYP3A4. The note with it: read-out: IC50 for CYP3A4; human liver microsomes; cited from earlier work.
Data set [7] relates to CYP2C8. The note with it: cited from earlier work. This is another data set of the same source.
[8] abbreviates: AFB1 diet 20 µg/kg feed for 2 weeks vs control, TIA oral 25 mg/kg BW, p < 0.01.
Setting [9] is: TIA oral bolus 25 mg/kg BW, chickens not pretreated with AFB1 (control feed for 2 weeks), n = 9, mean ± SD.

Read-outs that look alike come from different tables or passages of the source.

As to `CCC[C@@H]1C[C@@H](C(=O)N[C@@H]([C@H]2O[C@H](SC)[C@H](O)[C@@H](O)[C@H]2O)[C@@H](C)O)N(C)C1` [lincomycin], in data set [1], the “inhibition of CYP1A, CYP2A, CYP2C, CYP2B, CYP2E and CYP3A” value was “inhibits”.

For `CC1(C)S[C@@H]2[C@H](NC(=O)[C@H](N)c3ccc(O)cc3)C(=O)N2[C@H]1C(=O)O` [Amoxicillin], in the data set on CYP2C8 [2], the IC50 was 830 µM.

Consider `CCN1CCN(c2cc3c(cc2F)c(=O)c(C(=O)O)cn3C2CC2)CC1` [enrofloxacin], for which, in the data set with CYP3A, the “inhibition of CYP3A activity” value is given as “inhibit CYP3A activity”. In data set [3], the “increase of AUC0–∞” value is 17%, the “increase of T1/2a” value is on record as 17% and the “increase of Tmax” value is given as 26%.

Turning to `C=C[C@]1(C)C[C@@H](OC(=O)CSCCN(CC)CC)[C@]2(C)[C@H](C)CC[C@]3(CCC(=O)[C@H]32)[C@@H](C)[C@@H]1O` [TIA, tiamulin], the IC50 is over 7.6 µM in data set [4]; over 40 µM with CYP1A2; 7.6 µM in the data set with CYP2A6; over 40 µM in the data set on CYP2B6; over 40 µM with CYP2C9; over 40 µM with CYP2E1 (microsomes). Also, the results for the IC50 in the data set on CYP3A4 [5] (microsomes) and in the data set with CYP3A4 [6] were over 40 µM and 1.6 µM, respectively. Further, the “IC50 for CYP2E1” value in the data set with CYP2E1 worked out at 47.6 µM. In the data set on CYP3A4 [5], the “IC50 for CYP3A4” value came to 334.2 µM. Also, the “TIA concentration in chicken plasma, Treatment group” value in “in vivo” (0.25 h after oral TIA 25 mg/kg BW, mean ± SD) came to 134 ± 71.5 ng/mL; in “in vivo” (0.50 h after oral TIA 25 mg/kg BW, mean ± SD), 83.7 ± 40.2 ng/mL; in “in vivo” (1 h after oral TIA 25 mg/kg BW, mean ± SD) it was 76.7 ± 40.2 ng/mL; in the data set “in vivo” (2 h after oral TIA 25 mg/kg BW, mean ± SD), 91.0 ± 61.2 ng/mL; in “in vivo” (3 h after oral TIA 25 mg/kg BW, mean ± SD), 73.6 ± 32.9 ng/mL; in “in vivo” (4 h after oral TIA 25 mg/kg BW, mean ± SD) it was 29.6 ± 13.8 ng/mL. Besides, the “TIA concentration in chicken plasma, Treatment group” value in “in vivo” (6 h after oral TIA 25 mg/kg BW, mean ± SD) came to 10.8 ± 3.6 ng/mL; in “in vivo” (8 h after oral TIA 25 mg/kg BW, mean ± SD), 10.4 ± 3.7 ng/mL; in “in vivo” (12 h after oral TIA 25 mg/kg BW, mean ± SD) it was 9.60 ± 3.0 ng/mL; in “in vivo” (24 h after oral TIA 25 mg/kg BW, mean ± SD), 9.50 ± 3.3 ng/mL. Further, the “increase of Cmax of TIA by AFB1 exposure” value in the data set “in vivo” (AFB1 diet 20 µg/kg feed for 2 weeks vs control, TIA oral 25 mg/kg BW) stood at 155%. The “CL_F_obs of TIA in AFB1-exposed group lower than in the control group” value in the data set “in vivo” (setting [8]) is on record as 63%. The “Vd_F_obs of TIA in AFB1-exposed group lower than in the control group” value in the data set “in vivo” (setting [8]) came out at 57%. The “increase of AUClast of TIA by AFB1 exposure” value in “in vivo” (setting [8]) is reported as 167%. Further, the “Tmax, Control” value in “in vivo” (setting [9]) is recorded as 0.4 ± 0.2 h. Also, the “Vd_F_obs, Control” value in “in vivo” (setting [9]) is on record as 715.1 ± 228.45 L/kg. Moreover, the “Vd_F_obs, Treatment” value in “in vivo” (TIA oral bolus 25 mg/kg BW, chickens pretreated with AFB1 contaminated diet (20 µg/kg feed for 2 weeks), n = 8, mean ± SD) is reported as 407.1 ± 142.5 L/kg. For the same compound, the AUC(0-t) in the data set “in vivo” (male, Ross 308, in vivo, po, 25 mg/kg, TIA oral bolus 25 mg/kg BW, chickens not pretreated with AFB1 (control feed for 2 weeks), last sampling point 180 h, n = 9, mean ± SD, read-out: AUClast, Control) stood at 0.294 ± 0.0633 µg·h/mL. The AUC(0-inf) is 0.357 ± 0.0696 µg·h/mL in “in vivo” (male, Ross 308, in vivo, po, 25 mg/kg, TIA oral bolus 25 mg/kg BW, chickens not pretreated with AFB1 (control feed for 2 weeks), n = 9, mean ± SD, read-out: AUCINF_obs, Control) and 0.586 ± 0.174 µg·h/mL in “in vivo” (male, Ross 308, in vivo, po, 25 mg/kg, TIA oral bolus 25 mg/kg BW, chickens pretreated with AFB1 contaminated diet (20 µg/kg feed for 2 weeks), n = 8, mean ± SD, read-out: AUCINF_obs, Treatment). In addition, the CL/F in the data set “in vivo” (male, Ross 308, in vivo, po, 25 mg/kg, TIA oral bolus 25 mg/kg BW, chickens not pretreated with AFB1 (control feed for 2 weeks), n = 9, mean ± SD, read-out: CL_F_obs, Control (converted)) was 72.3 L/h/kg; in “in vivo” (male, Ross 308, in vivo, po, 25 mg/kg, TIA oral bolus 25 mg/kg BW, chickens pretreated with AFB1 contaminated diet (20 µg/kg feed for 2 weeks), n = 8, mean ± SD, read-out: CL_F_obs, Treatment (converted)), 45.8 L/h/kg. Moreover, the Cmax in “in vivo” (male, Ross 308, in vivo, po, 25 mg/kg, TIA oral bolus 25 mg/kg BW, chickens not pretreated with AFB1 (control feed for 2 weeks), n = 9, mean ± SD, read-out: Cmax, Control) turned out to be 0.0899 ± 0.0459 µg/mL; in “in vivo” (male, Ross 308, in vivo, po, 25 mg/kg, TIA oral bolus 25 mg/kg BW, chickens pretreated with AFB1 contaminated diet (20 µg/kg feed for 2 weeks), n = 8, mean ± SD, read-out: Cmax, Treatment), 0.142 ± 0.0654 µg/mL. For the same compound, the MRT last in the data set “in vivo” (male, Ross 308, in vivo, po, 25 mg/kg, TIA oral bolus 25 mg/kg BW, chickens not pretreated with AFB1 (control feed for 2 weeks), n = 9, mean ± SD, read-out: MRTlast, Control) was 6.8 ± 1.4 h; in the data set “in vivo” (male, Ross 308, in vivo, po, 25 mg/kg, TIA oral bolus 25 mg/kg BW, chickens pretreated with AFB1 contaminated diet (20 µg/kg feed for 2 weeks), n = 8, mean ± SD, read-out: MRTlast, Treatment) it was 6.2 ± 1.8 h. For the same compound, the half-life is 7 ± 2.9 h in the data set “in vivo” (male, Ross 308, in vivo, po, 25 mg/kg, TIA oral bolus 25 mg/kg BW, chickens not pretreated with AFB1 (control feed for 2 weeks), n = 9, mean ± SD, read-out: T1/2λz, Control (converted)) and 6.3 ± 2.2 h in “in vivo” (male, Ross 308, in vivo, po, 25 mg/kg, TIA oral bolus 25 mg/kg BW, chickens pretreated with AFB1 contaminated diet (20 µg/kg feed for 2 weeks), n = 8, mean ± SD, read-out: T1/2λz, Treatment (converted)). Moreover, the Tmax in the data set “in vivo” (male, Ross 308, in vivo, po, 25 mg/kg, TIA oral bolus 25 mg/kg BW, chickens not pretreated with AFB1 (control feed for 2 weeks), n = 9, mean ± SD, read-out: Tmax, Control) was found to be 0.44 h; in the data set “in vivo” (male, Ross 308, in vivo, po, 25 mg/kg, TIA oral bolus 25 mg/kg BW, chickens pretreated with AFB1 contaminated diet (20 µg/kg feed for 2 weeks), n = 8, mean ± SD, read-out: Tmax, Treatment), 1 ± 1.1 h. Moreover, in the data set on broilers, the “adverse health effects in broilers” value is “No significant adverse health effects”.

With `COc1cc(Cc2cnc(N)nc2N)cc(OC)c1OC` [Trimethoprim], the “inhibitory effect on CYP2C8” value with CYP2C8 [7] was “weak inhibitory effect”.

In general, IC50 refers to the point on the concentration scale where inhibition reaches its midpoint. By Cmax is commonly meant the highest concentration seen after dosing. Broadly, the Tmax is the time at which the peak concentration occurs.

The record behind these values is PMC10974768 (Toxins, 2024).
